≈ marks a conversion by molar mass, not a printed value.
Key:
Format in all cases: cell-based
Burkholderia cepacia = assay: Zone of inhibition assay, 24 hour minimum inhibitory concentration, Burkholderia cepacia; settings: Day-Engley neutralizing media
Method: (§1) The minimum inhibitory concentrations of ethynyl 4-methylbenzene sulfone, available from Aldrich Chemical Co., and the sulfones prepared in Examples 1-15 were determined against the bacteria Burkholderia cepacia and Staphylococcus aureus by the zone of inhibition assay method common in the art. Burkholderia cepacia and Staphylococcus aureus was contacted with each sulfone for 24 hours in a Day-Engley neutralizing media (Difco Manual, 10th Ed., p. 261-263 (1984). The results are shown in Table 1.

Staphylococcus aureus = assay: Zone of inhibition assay, 24 hour minimum inhibitory concentration, Staphylococcus aureus; settings: Day-Engley neutralizing media
Method: as §1

Aspergillus niger = assay: Zone of inhibition assay, 5 day minimum inhibitory concentration, Aspergillus niger; settings: ATCC16404, 120 h; Aspergillus niger ATCC #16404; 5 days; Day-Engley neutralizing media
Method: The minimum inhibitory concentrations of ethynyl 4-methylbenzene sulfone and the sulfones prepared in Examples 1-15 were determined against the fungi Aspergillus niger by the zone of inhibition assay method common in the art. A. niger ATCC #16404 was contacted with each sulfone for 5 days in a Day-Engley neutralizing media.

SMILES	MIC (Burkholderia cepacia) [µg/mL]	MIC (Staphylococcus aureus) [µg/mL]	MIC (Aspergillus niger) [µg/mL]
C#CS(=O)(=O)c1ccc(CC)cc1 [Ethynyl 4-Ethylbenzene Sulfone]	300 to 1000 (≈ 1540 to 5150 µM)	3 to 10 (≈ 15.4 to 51.5 µM)	3000 to 10000 (≈ 15400 to 51500 µM)
O=S(=O)(C#CI)c1ccccc1 [Iodoethynyl Benzene Sulfone, Iodoethynyl benzene sulfone]	3 to 10 (≈ 10.3 to 34.2 µM)	0.3 to 1 (≈ 1.03 to 3.42 µM)	300 to 1000 (≈ 1030 to 3420 µM)
C#CS(=O)(=O)c1ccc(C(C)(C)C)cc1 [Ethynyl 4-t-Butylbenzene Sulfone, Ethynyl 4-t-butylbenzene sulfone]	> 1000	30 to 100 (≈ 135 to 450 µM)	> 10000
COc1ccc(S(=O)(=O)C#CI)cc1OC [Iodoethynyl 3,4-Dimethoxybenzene Sulfone, Iodoethynyl 3,4-dimethoxybenzene sulfone]	300 to 1000 (≈ 852 to 2840 µM)	30 to 100 (≈ 85.2 to 284 µM)	300 to 1000 (≈ 852 to 2840 µM)
C#CS(=O)(=O)c1ccc(C)cc1 [Ethynyl 4-Methylbenzene Sulfone, ethynyl 4-methylbenzene sulfone, reference compound]	100 to 300 (≈ 555 to 1660 µM)	3 to 10 (≈ 16.6 to 55.5 µM)	3000 to 10000 (≈ 16600 to 55500 µM)
O=S(=O)(C#CI)c1ccc(OC(F)(F)F)cc1 [Iodoethynyl 4-trifluoromethoxybenzene sulfone]	100 to 300 (≈ 266 to 798 µM)	0.3 to 1 (≈ 0.798 to 2.66 µM)	30 to 100 (≈ 79.8 to 266 µM)
Cc1cc(C)c(S(=O)(=O)C#CI)c(C)c1 [Iodoethynyl 2,4,6-trimethylbenzene sulfone]	300 to 1000 (≈ 898 to 2990 µM)	100 to 300 (≈ 299 to 898 µM)	100 to 300 (≈ 299 to 898 µM)
C#CS(=O)(=O)c1c(C)cc(C)cc1C [Ethynyl 2,4,6-Trimethylbenzene Sulfone, Ethynyl 2,4,6-trimethylbenzene sulfone]	300 to 1000 (≈ 1440 to 4800 µM)	300 to 1000 (≈ 1440 to 4800 µM)	3000 to 10000 (≈ 14400 to 48000 µM)
C#CS(=O)(=O)c1ccccc1 [Ethynyl Benzene Sulfone, Ethynyl benzene sulfone]	10 to 30 (≈ 60.2 to 181 µM)	1 to 3 (≈ 6.02 to 18.1 µM)	1000 to 3000 (≈ 6020 to 18100 µM)
C#CS(=O)(=O)c1ccc(OC)c(OC)c1 [Ethynyl 3,4-Dimethoxybenzene Sulfone, Ethynyl 3,4-dimethoxybenzene sulfone]	> 1000	10 to 30 (≈ 44.2 to 133 µM)	> 10000
C#CS(=O)(=O)c1ccc(OC)cc1 [Ethynyl 4-Methoxybenzene Sulfone, ethynyl 4-methoxybenzene sulfone]	30 to 100 (≈ 153 to 510 µM)	1 to 3 (≈ 5.1 to 15.3 µM)	1000 to 3000 (≈ 5100 to 15300 µM)
C#CS(=O)(=O)c1ccc(OC(F)(F)F)cc1 [Ethynyl 4-trifluoromethoxybenzene sulfone]	> 1000	3 to 10 (≈ 12 to 40 µM)	> 10000
Cc1ccc(S(=O)(=O)C#CI)cc1 [Iodoethynyl 4-Methylbenzene Sulfone, Iodoethynyl 4-methylbenzene sulfone]	0.3 to 1 (≈ 0.98 to 3.27 µM)	0.3 to 1 (≈ 0.98 to 3.27 µM)	100 to 300 (≈ 327 to 980 µM)
COc1ccc(S(=O)(=O)C#CI)cc1 [Iodoethynyl 4-Methoxybenzene Sulfone, iodoethynyl 4-methoxybenzene sulfone]	30 to 100 (≈ 93.1 to 310 µM)	3 to 10 (≈ 9.31 to 31 µM)	30 to 100 (≈ 93.1 to 310 µM)
CCc1ccc(S(=O)(=O)C#CI)cc1 [Iodoethynyl 4-Ethylbenzene Sulfone, Iodoethynyl 4-ethylbenzene sulfone]	100 to 300 (≈ 312 to 937 µM)	0.3 to 1 (≈ 0.937 to 3.12 µM)	10 to 30 (≈ 31.2 to 93.7 µM)
CC(C)(C)c1ccc(S(=O)(=O)C#CI)cc1 [Iodoethynyl 4-t-Butylbenzene Sulfone, Iodoethynyl 4-t-butylbenzene sulfone]	300 to 1000 (≈ 862 to 2870 µM)	1 to 3 (≈ 2.87 to 8.62 µM)	100 to 300 (≈ 287 to 862 µM)
